Assay results taken from patent publication US20020137929A1, “1 - (3-heterocyclylphenyl) isothiourea, -isourea, -guanidine and -amidine herbicidal agents” (Intellectual Property Department, BASF Aktiengesellschaft, priority 1998, published 2002).

Columns and labels:
[1] = test system: ABUTH (Velvetleaf); experiment: Postemergence herbicidal evaluation; assay type: in vivo, Abutilon theophrasti
In short: (§1)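 Herbicidal effect was judged by eye on a 0–9 scale covering stand, vigor, deformity, size and chlorosis, compared with controls, four to five weeks after seedlings about two weeks old were sprayed (40 psi, ~0.0156–0.500 kg/ha).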

[2] = test system: AMBEL (Ragweed, Common); experiment: Postemergence herbicidal evaluation; assay type: in vivo, Ambrosia artemisifolia
In short: as §1

[3] = test system: CHEAL (Lambsquarters, Common); experiment: Postemergence herbicidal evaluation; assay type: in vivo, Chenopodium album
In short: as §1

[4] = test system: ECHCG (Barnyardgrass); experiment: Postemergence herbicidal evaluation; assay type: in vivo, Echinochloa crus-galli
In short: as §1

[5] = test system: GLXMAW (Soybean, Williams); experiment: Postemergence herbicidal evaluation; assay type: in vivo, Glycine max, (L.) Merr. cv Williams
In short: as §1

[6] = test system: ORYSAT (Rice, Tebonnet); experiment: Postemergence herbicidal evaluation; assay type: in vivo, Oryza sativa, (L.) Tebonnet
In short: as §1

[7] = test system: ZEAMX (Corn, Field); experiment: Postemergence herbicidal evaluation; assay type: in vivo, Zea mays
In short: as §1

[8] = test system: AMBEL (Ragweed, Common); experiment: Preemergence herbicidal evaluation; assay type: in vivo, Ambrosia artemisifolia; settings: rated 4-5 weeks after treatment
In short: (§2)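 In this greenhouse assay, monocot and dicot seeds are planted in soil and treated prior to emergence with an aqueous acetone spray (about 0.0156-0.500 kg/ha). Plants are assessed visually against control on a 0-9 scale after 4-5 weeks.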

[9] = test system: CASOB (Sicklepod); experiment: Preemergence herbicidal evaluation; assay type: in vivo, Cassia obtusifolia; settings: rated 4-5 weeks after treatment
In short: as §2

[10] = test system: CHEAL (Lambsquarters, Common); experiment: Preemergence herbicidal evaluation; assay type: in vivo, Chenopodium album; settings: rated 4-5 weeks after treatment
In short: as §2

[11] = test system: GALAP (Galium); experiment: Preemergence herbicidal evaluation; assay type: in vivo, Galium aparine; settings: rated 4-5 weeks after treatment
In short: as §2

[12] = test system: CYPSE (Flatsedge); experiment: Preemergence weed control under flooded paddy conditions; assay type: in vivo, Cyperus serotinus; settings: rated 3-4 weeks after treatment
In short: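 Flooded-pot preemergence screen with silt loam and seeds in the upper 0.5 cm. Dose about 0.0313 to 0.500 kg/ha, delivered into flood water; visual 0-9 score after 3 to 4 weeks.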

[13] = test system: CYPIR (Rice Flatsedge); experiment: Postemergence weed control under flooded paddy conditions; assay type: in vivo, Cyperus iria; settings: postemergence weeds, 3-4 weeks after treatment
In short: (§3)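 Containers holding 3–5 cm weeds and rice at 1.5–2.5 leaves are flooded to 1.5–3 cm above soil. Compound in 50/50 v/v aqueous/acetone is then added directly to the water, about 0.0313–0.500 kg/ha. Plants are kept in the greenhouse and rated 0–9 visually at 3–4 weeks.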

[14] = test system: CYPSE (Flatsedge); experiment: as above; assay type: in vivo, Cyperus serotinus; settings: postemergence weeds, 3-4 weeks after treatment
In short: as §3

CCOC(=O)CN1C(=O)CS(=O)(=O)C1=Nc1cc(-n2c(=O)cc(C(F)(F)F)n(C)c2=O)c(F)cc1Cl [Compound 46, 2-{{2-Chloro-5-[3,6-dihydro-3-methyl-2,6-dioxo-4-(trifluoromethyl)-1(2H)-pyrimidinyl]-4-fluoro-phenyl}imino}-4-oxo-3-thiazolidineacetic acid, ethyl ester, 1,1-dioxide]
Postemergence herbicidal rating ABUTH ([1]; Rate 0.0313 kg/ha): 4.0
Postemergence herbicidal rating ABUTH ([1]; Rate 0.0625 kg/ha): 9.0
Postemergence herbicidal rating AMBEL ([2]; Rate 0.0313 kg/ha): 0.0
Postemergence herbicidal rating AMBEL ([2]; Rate 0.0625 kg/ha): 5.0
Postemergence herbicidal rating CHEAL ([3]; Rate 0.0313 kg/ha): 0.0
Postemergence herbicidal rating CHEAL ([3]; Rate 0.0625 kg/ha): 0.0
Postemergence herbicidal rating ECHCG ([4]; Rate 0.0313 kg/ha): 0.0
Postemergence herbicidal rating ECHCG ([4]; Rate 0.0625 kg/ha): 0.0
Postemergence herbicidal rating GLXMAW ([5]; Rate 0.0313 kg/ha): 5.0
Postemergence herbicidal rating GLXMAW ([5]; Rate 0.0625 kg/ha): 5.5
Postemergence herbicidal rating ORYSAT ([6]; Rate 0.0313 kg/ha): 1.0
Postemergence herbicidal rating ORYSAT ([6]; Rate 0.0625 kg/ha): 1.5
Postemergence herbicidal rating ZEAMX ([7]; Rate 0.0313 kg/ha): 4.5
Postemergence herbicidal rating ZEAMX ([7]; Rate 0.0625 kg/ha): 5.0
Preemergence herbicidal rating AMBEL ([8]; rate 0.1250 kg/ha): 1.0
Preemergence herbicidal rating AMBEL ([8]; rate 0.2500 kg/ha): 1.0
Preemergence herbicidal rating CASOB ([9]; rate 0.1250 kg/ha): 0.0
Preemergence herbicidal rating CASOB ([9]; rate 0.2500 kg/ha): 0.0
Preemergence herbicidal rating CHEAL ([10]; rate 0.1250 kg/ha): 9.0
Preemergence herbicidal rating CHEAL ([10]; rate 0.2500 kg/ha): 9.0
Preemergence herbicidal rating GALAP ([11]; rate 0.1250 kg/ha): 0.0
Preemergence herbicidal rating GALAP ([11]; rate 0.2500 kg/ha): 0.0
Herbicidal rating CYPSE ([12]; 0.0313 kg/ha): 0.0
Herbicidal rating CYPSE ([12]; 0.0625 kg/ha): 0.0
Herbicidal rating CYPSE ([12]; 0.1250 kg/ha): 0.0
Herbicidal rating CYPSE ([12]; 0.2500 kg/ha): 6.0
Herbicidal rating CYPIR ([13]; rate 0.0313 kg/ha): 0.0
Herbicidal rating CYPIR ([13]; rate 0.0625 kg/ha): 0.0
Herbicidal rating CYPIR ([13]; rate 0.1250 kg/ha): 0.0
Herbicidal rating CYPIR ([13]; rate 0.2500 kg/ha): 0.0
Herbicidal rating CYPSE ([14]; rate 0.0313 kg/ha): 0.0
Herbicidal rating CYPSE ([14]; rate 0.0625 kg/ha): 0.0
Herbicidal rating CYPSE ([14]; rate 0.1250 kg/ha): 0.0
Herbicidal rating CYPSE ([14]; rate 0.2500 kg/ha): 6.0

COC(=O)CCCN1C(=O)CSC1=Nc1cc(-n2c(=O)cc(C(F)(F)F)n(C)c2=O)c(F)cc1Cl [Compound 29, Methyl 2-{{2-chloro-5-[3,6-dihydro-3-methyl-2,6-dioxo-4-(trifluoromethyl)-1(2H)-pyrimidinyl]-4-fluorophenyl}imino}-4-oxo-3-thiazolidinebutyrate]
Postemergence herbicidal rating ABUTH ([1]; Rate 0.0158 kg/ha): 9.0
Postemergence herbicidal rating ABUTH ([1]; Rate 0.0315 kg/ha): 7.0
Postemergence herbicidal rating ABUTH ([1]; Rate 0.0630 kg/ha): 9.0
Postemergence herbicidal rating AMBEL ([2]; Rate 0.0158 kg/ha): 1.0
Postemergence herbicidal rating AMBEL ([2]; Rate 0.0315 kg/ha): 4.0
Postemergence herbicidal rating AMBEL ([2]; Rate 0.0630 kg/ha): 9.0
Postemergence herbicidal rating CHEAL ([3]; Rate 0.0158 kg/ha): 1.0
Postemergence herbicidal rating CHEAL ([3]; Rate 0.0315 kg/ha): 1.0
Postemergence herbicidal rating CHEAL ([3]; Rate 0.0630 kg/ha): 5.0
Postemergence herbicidal rating ECHCG ([4]; Rate 0.0158 kg/ha): 0.0
Postemergence herbicidal rating ECHCG ([4]; Rate 0.0315 kg/ha): 1.0
Postemergence herbicidal rating ECHCG ([4]; Rate 0.0630 kg/ha): 4.0
Postemergence herbicidal rating GLXMAW ([5]; Rate 0.0158 kg/ha): 6.5
Postemergence herbicidal rating GLXMAW ([5]; Rate 0.0315 kg/ha): 7.5
Postemergence herbicidal rating GLXMAW ([5]; Rate 0.0630 kg/ha): 8.0
Postemergence herbicidal rating ORYSAT ([6]; Rate 0.0158 kg/ha): 1.0
Postemergence herbicidal rating ORYSAT ([6]; Rate 0.0315 kg/ha): 3.0
Postemergence herbicidal rating ORYSAT ([6]; Rate 0.0630 kg/ha): 3.5
Postemergence herbicidal rating ZEAMX ([7]; Rate 0.0158 kg/ha): 5.5
Postemergence herbicidal rating ZEAMX ([7]; Rate 0.0315 kg/ha): 5.5
Postemergence herbicidal rating ZEAMX ([7]; Rate 0.0630 kg/ha): 7.5
Preemergence herbicidal rating AMBEL ([8]; rate 0.0625 kg/ha): 0.0
Preemergence herbicidal rating AMBEL ([8]; rate 0.1250 kg/ha): 0.0
Preemergence herbicidal rating AMBEL ([8]; rate 0.2500 kg/ha): 0.0
Preemergence herbicidal rating CASOB ([9]; rate 0.0625 kg/ha): 0.0
Preemergence herbicidal rating CASOB ([9]; rate 0.1250 kg/ha): 0.0
Preemergence herbicidal rating CASOB ([9]; rate 0.2500 kg/ha): 0.0
Preemergence herbicidal rating CHEAL ([10]; rate 0.0625 kg/ha): 0.0
Preemergence herbicidal rating CHEAL ([10]; rate 0.1250 kg/ha): 0.0
Preemergence herbicidal rating CHEAL ([10]; rate 0.2500 kg/ha): 0.0
Preemergence herbicidal rating GALAP ([11]; rate 0.0625 kg/ha): 0.0
Preemergence herbicidal rating GALAP ([11]; rate 0.1250 kg/ha): 0.0
Preemergence herbicidal rating GALAP ([11]; rate 0.2500 kg/ha): 0.0
Herbicidal rating CYPSE ([12]; 0.0313 kg/ha): 0.0
Herbicidal rating CYPSE ([12]; 0.0625 kg/ha): 0.0
Herbicidal rating CYPSE ([12]; 0.1250 kg/ha): 0.0
Herbicidal rating CYPSE ([12]; 0.2500 kg/ha): 0.0
Herbicidal rating CYPIR ([13]; rate 0.0313 kg/ha): 0.0
Herbicidal rating CYPIR ([13]; rate 0.0625 kg/ha): 0.0
Herbicidal rating CYPIR ([13]; rate 0.1250 kg/ha): 0.0
Herbicidal rating CYPIR ([13]; rate 0.2500 kg/ha): 0.0
Herbicidal rating CYPSE ([14]; rate 0.0313 kg/ha): 0.0
Herbicidal rating CYPSE ([14]; rate 0.0625 kg/ha): 0.0
Herbicidal rating CYPSE ([14]; rate 0.1250 kg/ha): 0.0
Herbicidal rating CYPSE ([14]; rate 0.2500 kg/ha): 0.0
